According to patent US8399452B2, “Dibenzo[b,f][1,4]oxazepin-11-yl-N-hydroxybenzamides as HDAC inhibitors” (Methylgene Inc., priority 2006, dated 2013):

Target: histone deacetylase (HDAC Enzyme)
Assay: Inhibition of Histone Deacetylase Enzymatic Activity (Boc-Lys(Ac)-AMC, Fluor-de-Lys developer)
Assay type: biochemical
Settings: Table 9; read-out: HDAC Inhibition (IC50 μM) HDAC Enzyme
Experimental: The following protocol is used to assay the compounds of the invention.
The mixture is pre-incubated for 5 minutes at room temperature. The reaction is started by bringing the temperature to 37° C. and adding 16 μl substrate. Total reaction volume is 50 μl.
In the Tables 8, 9 and 10, A≦[…]<B≦0.1 μM; 0.1 μM<C≦1 μM; and 1 μM<D≦10 μM.

Structure (SMILES)	IC50 [µM]
O=C(NO)c1cnc(N2C[C@@H]3C[C@H]2CN3c2ccc(F)cc2)nc1 [2-((1S,4S)-5-(4-fluorophenyl)-2,5-diazabicyclo[2.2.1]heptan-2-yl)-N-hydroxypyrimidine-5-carboxamide]	0.05 to 0.1
CC(C)OC(=O)N1C[C@@H]2C[C@H]1CN2c1ncc(C(=O)NO)cn1 [(1S,4S)-isopropyl 5-(5-(hydroxycarbamoyl)pyrimidin-2-yl)-2,5-diazabicyclo[2.2.1]heptane-2-carboxylate]	< 0.05
O=C(NO)c1ccc(N2C[C@@H]3C[C@H]2CN3c2cccc(C(F)(F)F)c2)cc1 [N-hydroxy-4-((1S,4S)-5-(3-(trifluoromethyl)phenyl)-2,5-diazabicyclo[2.2.1]heptan-2-yl)benzamide]	0.1 to 1
O=C(NO)c1cnc(N2C[C@@H]3C[C@H]2CN3c2cccc(C(F)(F)F)c2)cn1 [N-hydroxy-5-((1S,4S)-5-(3-(trifluoromethyl)phenyl)-2,5-diazabicyclo[2.2.1]heptan-2-yl)pyrazine-2-carboxamide]	0.1 to 1
O=C(NO)c1cnc(N2C[C@@H]3C[C@H]2CN3C(=O)c2cccc(C(F)(F)F)c2)nc1 [N-hydroxy-2-((1S,4S)-5-(3-(trifluoromethyl)benzoyl)-2,5-diazabicyclo[2.2.1]heptan-2-yl)pyrimidine-5-carboxamide]	0.05 to 0.1
O=C(NO)c1cnc(N2C[C@@H]3C[C@H]2CN3)nc1 [2-((1S,4S)-2,5-diazabicyclo[2.2.1]heptan-2-yl)-N-hydroxypyrimidine-5-carboxamide]	0.1 to 1
Cc1ccc(N2C[C@H]3C[C@@H]2CN3c2ncc(C(=O)NO)cn2)cc1 [N-hydroxy-2-((1R,4R)-5-p-tolyl-2,5-diazabicyclo[2.2.1]heptan-2-yl)pyrimidine-5-carboxamide]	< 0.05
O=C(NO)c1cnc(N2C[C@@H]3C[C@H]2CN3c2ccccc2)nc1 [N-hydroxy-2-((1S,4S)-5-phenyl-2,5-diazabicyclo[2.2.1]heptan-2-yl)pyrimidine-5-carboxamide]	0.05 to 0.1
N#Cc1cccc(N2CC3CC2CN3c2ncc(C(=O)NO)cn2)c1 (stereo not drawn) [2-(5-(3-cyanophenyl)-2,5-diazabicyclo[2.2.1]heptan-2-yl)-N-hydroxypyrimidine-5-carboxamide]	< 0.05
CC(C)(C)OC(=O)N1C[C@@H]2C[C@H]1CN2c1ncc(C(=O)NO)cn1 [(1S,4S)-tert-butyl 5-(5-(hydroxycarbamoyl)pyrimidin-2-yl)-2,5-diazabicyclo[2.2.1]heptane-2-carboxylate]	< 0.05
Cc1ccc(N2C[C@@H]3C[C@H]2CN3c2ncc(C(=O)NO)cn2)cc1 [N-hydroxy-2-((1S,4S)-5-p-tolyl-2,5-diazabicyclo[2.2.1]heptan-2-yl)pyrimidine-5-carboxamide]	< 0.05
O=C(NO)c1ccc(N2C[C@@H]3C[C@H]2CN3c2cccc(C(F)(F)F)c2)cc1F [2-fluoro-N-hydroxy-4-((1S,4S)-5-(3-(trifluoromethyl)phenyl)-2,5-diazabicyclo[2.2.1]heptan-2-yl)benzamide]	0.1 to 1

Same assay, conditions: Table 10; read-out: HDAC Inhibition (IC50 μM) HDAC Enzyme

Structure (SMILES)	IC50 [µM]
O=C(CCCCCCN1C(=O)c2cccnc2N(C2CC2)c2ccccc21)NO [7-(11-cyclopropyl-5-oxo-5H-benzo[b]pyrido[2,3-e][1,4]diazepin-6(11H)-yl)-N-hydroxyheptanamide]	0.05 to 0.1
O=C(CCCCN1c2ccccc2C=Cc2ccccc21)NO [(Z)-5-(5H-dibenzo[b,f]azepin-5-yl)-N-hydroxypentanamide]	0.1 to 1
O=C(CCCN1c2ccccc2C=Cc2ccccc21)NO [(Z)-4-(5H-dibenzo[b,f]azepin-5-yl)-N-hydroxybutanamide]	1 to 10
O=C(CCCCCCCN1C(=O)c2cccnc2N(C2CC2)c2ccccc21)NO [8-(11-cyclopropyl-5-oxo-5H-benzo[b]pyrido[2,3-e][1,4]diazepin-6(11H)-yl)-N-hydroxyoctanamide]	0.1 to 1
CN1CCc2[nH]c3ccc(C(=O)NO)cc3c2C1 [N-hydroxy-2-methyl-2,3,4,5-tetrahydro-1H-pyrido[4,3-b]indole-8-carboxamide]	1 to 10
O=C(NO)c1ccc(Cn2c3c(c4ccccc42)CCCCCC3)cc1 [4-((6,7,8,9,10,11-hexahydro-5H-cycloocta[b]indol-5-yl)methyl)-N-hydroxybenzamide]	0.1 to 1
O=C(NO)c1ccc(CNC2c3ccccc3CCc3ccccc32)cc1	< 0.05
O=C(NO)c1ccc(ON=C2c3ccccc3CCc3ccccc32)cc1	0.1 to 1
O=C(NO)c1ccc(CN2Cc3ccccc3Oc3ccccc32)cc1 [4-(dibenzo[b,f][1,4]oxazepin-10(11H)-ylmethyl)-N-hydroxybenzamide]	< 0.05
O=C(/C=C/c1ccc2c(c1)NC(=O)CN=C2c1ccccc1)NO [(E)-N-hydroxy-3-((Z)-2-oxo-5-phenyl-2,3-dihydro-1H-benzo[e][1,4]diazepin-8-yl)acrylamide]	0.05 to 0.1
O=C(NO)c1cnc(NC2c3ccccc3CCc3ccccc32)nc1	< 0.05
O=C(NO)c1ccc(/C=C/CN2C(=O)c3ccccc3Oc3ccccc32)cc1	0.05 to 0.1
O=C(/C=C/c1ccc(CN2C(=O)CN=C(c3ccccc3)c3ccccc32)cc1)NO	0.05 to 0.1

Same assay, conditions: read-out: HDAC Inhibtion (IC50 μM) HDAC Enzyme

Structure (SMILES)	IC50 [µM]
CN(O)C(=O)c1ccc(C2=Nc3ccccc3N(C3CC3)c3ccccc32)cc1 [(Z)-4-(5-cyclopropyl-5H-dibenzo[b,e][1,4]diazepin-11-yl)-N-hydroxy-N-methylbenzamide]	1 to 10
O=C(NO)c1ccc(C2=Nc3ccccc3Oc3cc(C(F)(F)F)ccc32)cc1 [(Z)-N-hydroxy-4-(3-(trifluoromethyl)dibenzo[b,f][1,4]oxazepin-11-yl)benzamide]	0.05 to 0.1
O=C(NO)c1ccc(C2=Nc3ccc(C(F)(F)F)cc3Oc3ccccc32)cc1 [(Z)-N-hydroxy-4-(7-(trifluoromethyl)dibenzo[b,f][1,4]oxazepin-11-yl)benzamide]	0.1 to 1
O=C(NO)c1ccc(C2=Nc3ccccc3Oc3c(OCCN4CCOCC4)cccc32)cc1 [(Z)-N-hydroxy-4-(4-(2-morpholinoethoxy)dibenzo[b,f][1,4]oxazepin-11-yl)benzamide]	< 0.05
N#Cc1ccc2c(c1)Oc1ccccc1C(c1ccc(C(=O)NO)cc1)=N2 [(Z)-4-(7-cyanodibenzo[b,f][1,4]oxazepin-11-yl)-N-hydroxybenzamide]	< 0.05
O=C(NO)c1ccc(C2=Nc3ccc(C(F)(F)F)nc3Oc3ccccc32)cc1 [(Z)-N-hydroxy-4-(2-(trifluoromethyl)benzo[f]pyrido[2,3-b][1,4]oxazepin-6-yl)benzamide]	0.05 to 0.1
CS(=O)(=O)c1cccc2c1Oc1ccccc1N=C2c1ccc(C(=O)NO)cc1 [(Z)-N-hydroxy-4-(4-(methylsulfonyl)dibenzo[b,f][1,4]oxazepin-11-yl)benzamide]	< 0.05
O=C(NO)c1ccc(C2=Nc3ccccc3Oc3ccccc32)c(F)c1 [(E)-4-(dibenzo[b,f][1,4]oxazepin-11-yl)-3-fluoro-N-hydroxybenzamide]	1 to 10
O=C(NO)c1ccc(C2=Nc3ccccc3Oc3c(OC(F)(F)F)cccc32)cc1 [(Z)-N-hydroxy-4-(4-(trifluoromethoxy)dibenzo[b,f][1,4]oxazepin-11-yl)benzamide]	0.1 to 1
O=C(NO)c1ccc(C2=Nc3cc(C(F)(F)F)ccc3Oc3ccccc32)cc1 [(Z)-N-hydroxy-4-(8-(trifluoromethyl)dibenzo[b,f][1,4]oxazepin-11-yl)benzamide]	0.1 to 1
CCCc1cccc2c1Oc1ccccc1N=C2c1ccc(C(=O)NO)cc1 [(Z)-N-hydroxy-4-(4-propyldibenzo[b,f][1,4]oxazepin-11-yl)benzamide]	0.1 to 1
